Experimental data reported in article PMC7404270, “Biological Activities of Cyclic and Acyclic B-Type Laxaphycins in SH-SY5Y Human Neuroblastoma Cells” (Marine Drugs, 2020).
Starred links: 1 amine or outer side, 2 acyl side, 3 side chain; linkers in the order of their positions; H or OH if unused. Non-standard residues stand in square brackets, D forms with d. Residues, ends and D or L forms follow the SMILES beside them. dβ3hGly(nHeptyl) = CCCCCCC[C@H](CC(=O)[*:2])N[*:1]; dAsn(3R-OH) = NC(=O)[C@H](O)[C@@H](N)C(=O)O; dLeu(3S-OH) = CC(C)[C@H](O)[C@@H](N)C(=O)O; Hyp = O=C(O)[C@@H]1C[C@@H](O)CN1; NMeI = CC[C@H](C)[C@H](NC)C(=O)O

What was measured:
[1] = tested on: SH-SY5Y human neuroblastoma cells; assay: MTT cell metabolic activity assay; assay type: cell-based; conditions: 24 h, 0.001–10 µM, absorbance 595 nm, three experiments in triplicate
Experimental: (§1) SH-SY5Y human neuroblastoma cell line was obtained from American Type Culture Collection (ATCC), number CRL2266. Cells were cultured in Dulbecco´s modified Eagle´s medium: Nutrient Mix F-12 (DMEM/F-12) with 10% fetal bovine serum (FBS), 1% glutamax, 100 U/mL penicillin and 100 µg/mL streptomycin. Cells were maintained at 37 °C in a humidified atmosphere of 5% CO2 and 95% air and dissociated weekly using 0.05% trypsin/EDTA. All the reagents were obtained from Thermo Fischer Scientific.
The effect of laxaphycins on cell metabolic activity was evaluated by MTT (3-(4, 5-dimethyl thiazol-2-yl)-2, 5-diphenyl tetrazolium bromide) assay. SH-SY5Y cells were cultured in 96-well plates and treated with compounds at concentrations ranging from 0.001 to 10 µM for 24 h. Next, cells were rinsed three times and incubated for 1 h with MTT (500 µg/mL) dissolved in saline buffer. MTT excess was washed and cells were disaggregated with 5% sodium dodecyl sulfate. Absorbance of the colored formazan salt was measured at 595 nm in a spectrophotometer plate reader. Cell death control signal was subtracted from the other data.

mTOR = assay: Western blot, mTOR activation (phosphorylated/total); assay type: cell-based, human; conditions: SH-SY5Y cells, 24 h; Rap 0.1 µM
Experimental: (§2) SH-SY5Y cells were seeded in 12-well plates and treated with laxaphycins for 24 h. Next, cells were washed with PBS and lysis buffer (50mM Tris HCl, 150 mM NaCl, 1mM EDTA and 1% Triton x-100, supplemented with a complete phosphatase/protease inhibitor cocktail) was added to each well. Cells were scrapped, sonicated and centrifuged at 13,000 rpm at 4 °C for 20 min.
(§3) In both cases, the supernatant was collected as the cytosolic fraction and quantified with the Bradford method. Samples containing 15 µg were used for electrophoresis, resolved in 4–20% sodium dodecyl sulphate polyacrylamide gel (Biorad, Madrid, Spain). Proteins were transferred to PVDF membranes (Merck Millipore) with a Trans-Blot® semi-dry transfer cell (Biorad). Membrane blocking and antibody incubation was performed in Snap i.d. system (Merck Millipore). Protein bands were detected with Supersignal West Pico Luminiscent Substrate and Supersignal West Femto Maximum Sensitivity Substrate (Thermo Fisher Scientific). Chemiluminiscence was determined with Diversity GeneSnap system and software (Syngene). LC3 II/I was detected with the primary antibody anti-LC3 II/I (1:1000, Abcam), the primary antibody anti-pmTOR (Ser2448) (1:1000, Merck Millipore) was used to recognize phospho-mTOR and the total levels of the kinase were determined with anti-mTOR antibody (1:10000, Abcam), beclin-1 was detected with anti-beclin-1 primary antibody (1:1000, Merck Millipore), p62 was quantified with anti-p62 antibody (1:1000, Merck Millipore), anti-phospho-p70 S6 kinase (Thr389) (1:1000, Merck Millipore) was used to detect phospho- p70 and the total levels were quantified using anti-p70 S6 kinase antibody (1:1000, Merck Millipore), anti-phospho-AMPK (Thr172) (1:500, Merck Millipore) was used to recognize the phosphorylated state of the kinase, and the total expression of the enzyme was detected with anti-AMPK antibody (1:500, Merck Millipore). Protein levels were normalized using β-Actin (1:20,000, Millipore). Baf A1 (0.001 µM), Rap (0.1 µM) and Comp C (1 µM) were used as controls for autophagic flux measurements. […]

[2] = tested on: SH-SY5Y human neuroblastoma cells; assay: LDH cytotoxicity assay (cell viability); assay type: cell-based; conditions: 24 h, 0.001–10 µM
Experimental: as §1
Cell viability was assessed with the LDH test. Cells were seeded in 96-well plates and exposed to different compound concentrations (0.001–10 µM). Cells were incubated with compounds at 37 °C in humidified 5% CO2/95% air atmosphere for 24 h. Quillaja bark saponin was used as cellular death control. Then, cell medium was collected and LDH release was evaluated. Pierce^TM LDH-Cytotoxicity Assay Kit (Thermo Fisher Scientific) was used for LDH determination. Absorbance was measured at 490 nm to determine LDH release to the medium. Experiments were carried out in triplicate at least three independent times.

[3] = tested on: panel of cancer cell lines; conditions: read-out: IC50, cytotoxic effects against a panel of cancer cell lines; previous works; cited from earlier work
Description: (§4) Moreover, this study is the first description of the effects on mitochondria and autophagy produced by acyclic B-type laxaphycins, and also confirms that the toxic effects of cyclic laxaphycins B are mediated by an apoptotic process. […] Our results in neuroblastoma cells are in ag ...

[4] = tested on: drug-sensitive and multidrug-resistant tumor cell lines; parameters: method as in PMID 17323939; conditions: previous works; read-out: IC50, toxicity towards drug-sensitive and multidrug-resistant tumor cell lines; cited from earlier work
Description: as §4

[5] = tested on: SH-SY5Y human neuroblastoma cells; assay: Annexin V-FITC / propidium iodide flow cytometry; assay type: cell-based; conditions: 24 h, 1 at 0.3 µM; for Cell survival (flow cytometry): 2 at 0.15 µM (MTT IC50 values); for Apoptotic cells (early and late, Annexin V positive): 2 at 0.15 µM, STS at 0.01 µM, percentage of total cells, mean ± SEM of three experiments
Experimental: The Annexin V-FITC Apoptosis Detection Kit was used to determine the cell death produced by compounds as previously described. SH-SY5Y cells were seeded in 12-well plates at 1 × 10^6 per well and incubated for 24 h with laxaphycins. Then, cells were washed with PBS and resuspended in Annexin binding buffer containing Annexin V-FITC and PI. Cells were incubated for 15 min at room temperature, resuspended in PBS and filtered. The fluorescence was determined by flow cytometry using the ImageStreamMKII (Amnis Corporation, Luminex Corp, Austin, TX, USA). 10,000 events were analyzed with IDEAS Application 6.0 software (Amnis Corporation, Luminex Corp, Austin, TX, USA). STS (Sigma Aldrich) at 0.01 µM was used as control in this assay.

caspase 3 = assay: Caspase 3 activity in cell lysates (EnzCheck kit); assay type: cell-based, human; conditions: SH-SY5Y cells, 24 h; 1 at 0.3 µM, 2 at 0.15 µM
Experimental: The detection of caspase 3 activity was carried out with the EnzCheck® Caspase-3 Assay Kit. Neuroblastoma cells were cultured in 12-well plates at 1 × 10^6 cells per well and treated with compounds. After 24 h, cells were lysed and an aliquot was collected to quantify protein concentration by the Bradford method. Then, the assay was performed following manufacturer’s instructions. Briefly, 50 µL of each sample were mixed with equal volume of Z-DEVD-AMC substrate and incubated for 30 min at room temperature. Then, fluorescence at 342 nm excitation and 441 nm emission was measured. Caspase 3 activity data were corrected by protein concentration values. STS (0.01 µM) was used as positive control.

p70 S6 kinase = assay: Western blot, p70 S6 kinase activation (phosphorylated/total); assay type: cell-based, human; conditions: SH-SY5Y cells, 24 h; one range given for the three compounds together
Experimental: as §2, §3

Compound	IC50 [1] [µM]	mTOR activation (phospho/total), in words (mTOR)	Cytotoxicity / cell viability (LDH test), in words [2]	IC50 [3] [µM]	IC50 [4] [µM]	Cell survival (flow cytometry) [5]	Apoptotic cells (early and late, Annexin V positive) [5]	Increase in caspase 3 activity (caspase 3)	p70 S6 phosphorylation (p70 S6 kinase)
CCCCCCC[C@@H]1CC(=O)N[C@@H](C(C)C)C(=O)N[C@H]([C@@H](O)C(C)C)C(=O)N[C@@H](C)C(=O)N[C@H]([C@@H](O)C(C)C)C(=O)N[C@@H](CCC(N)=O)C(=O)N(C)[C@@H]([C@@H](C)CC)C(=O)N[C@H]([C@@H](O)C(N)=O)C(=O)N[C@@H]([C@@H](C)O)C(=O)N2CCC[C@H]2C(=O)N[C@H](CC(C)C)C(=O)N[C@@H]([C@@H](C)O)C(=O)N1 [compound 1, laxaphycin B] (cyclo([dβ3hGly(nHeptyl)]V[dLeu(3S-OH)]A[dLeu(3S-OH)]Q[NMeI][dAsn(3R-OH)]TP[dL]T))	0.3	did not affect to the protein expression	cytotoxic to neuroblastoma cells	< 2	~1	around 60 % of control cells	50.4% ± 4.8%	about 20 % of control cells	
CCCCCCC[C@@H]1CC(=O)N[C@@H](C(C)C)C(=O)N[C@H]([C@@H](O)C(C)C)C(=O)N[C@@H](C)C(=O)N[C@H]([C@@H](O)C(C)C)C(=O)N[C@@H](CCC(N)=O)C(=O)N(C)[C@@H]([C@@H](C)CC)C(=O)N[C@H]([C@@H](O)C(N)=O)C(=O)N[C@@H]([C@@H](C)O)C(=O)N2C[C@H](O)C[C@H]2C(=O)N[C@H](CC(C)C)C(=O)N[C@@H]([C@@H](C)O)C(=O)N1 [compound 2, laxaphycin B3] (cyclo([dβ3hGly(nHeptyl)]V[dLeu(3S-OH)]A[dLeu(3S-OH)]Q[NMeI][dAsn(3R-OH)]T[Hyp][dL]T))	0.15	did not affect to the protein expression	cytotoxic to neuroblastoma cells		~1	around 60 % of control cells	46.4% ± 4.8%	about 20 % of control cells	53.5%–78.6%
